Results: patent US20260284009A1, “COMPOUNDS FOR NOS-RELATED CANCERS AND METHODS OF USE” (YISSUM RESEARCH DEVELOPMENT COMPANY OF THE HEBREW …, priority 2023, published 2026)

What was measured:
Type in all cases: cell-based, human
U87-MG cells [1] = test: Clonogenic survival of U87-MG cells; conditions: 100 μM 7-NI, 500 or 1000 μM L-NIL, combinations 100 μM 7-NI + 500 or 1000 μM L-NIL
Excerpt: (§1) Data are presented as mean±SEM.
as §1

U87-MG cells [2] = test: Nitrate and nitrite levels in U87-MG cells; conditions: 100 μM 7-NI, 500 or 1000 μM L-NIL, combinations of both, n=3
Experimental: In FIGS. 10A-10B, data are presented as mean±SEM. Statistical significance was determined using a One-way ANOVA with Bonferroni's multiple comparisons tests. *P<0.05, **P<0.01, and ns=not significant.
FIG. 10A: Quantitative analysis of nitrate and nitrite levels in U87-MG cells following administration of 0.1% DMSO (“Vehicle”) (n=3) or 100 μM 7-NI (“7-NI”) (n=3).
FIG. 10B: Quantitative analysis of nitrate and nitrite levels in U87-MG cells following administration of control (n=3), 500 μM L-NIL (“L-NIL 500”) (n=3), or 1000 μM L-NIL (“L-NIL 1000”) (n=3).
Data are expressed as the mean±SEM.

U87-MG cells [3] = test: Western blots of 3-Ntyr, CD-70, iNOS and nNOS in U87-MG cells; conditions: western blot, 100 μM 7-NI, 500 or 1000 μM L-NIL, n=3
Experimental: In FIGS. 12A-12D, for quantitative analysis data, all individual data series are presented as biological replicates (n=3) for all groups. Data are expressed as the mean±SEM.
FIG. 12A: Representative western blots of 3-Ntyr and β-actin levels in U87-MG cells following administration of the control, 0.1% DMSO (“Vehicle”), or 100 μM 7-NI (“7-NI”).
FIG. 12B: Quantitative analysis of 3-Ntyr levels for the experiments of FIG. 12A.
FIG. 12C: Representative western blots of 3-Ntyr and β-actin levels in U87-MG cells following administration of the control, 500 μM L-NIL (“L-NIL 500”), or 1000 μM L-NIL (“L-NIL 1000”).
FIG. 12D: Quantitative analysis of 3-Ntyr levels for the experiments of FIG. 12C.
In FIGS. 13A-13B, for quantitative analysis data, all individual data series are presented as biological replicates (n=3) for all groups. Data are expressed as the mean±SEM.
FIG. 13A: Representative western blots of CD-70 and β-actin levels in U87-MG cells following administration of the control, 0.1% DMSO (“Vehicle”), 100 μM 7-NI (“7-NI”), 500 μM L-NIL (“L-NIL 500”), or 1000 μM L-NIL (“L-NIL 1000”).
FIG. 13B: Quantitative analysis of CD-70 levels for the experiments of FIG. 13A.
In FIGS. 14A-14B, for quantitative analysis data, all individual data series are presented as biological replicates (n=3) for all groups. Data are expressed as the mean±SEM.
FIG. 14A: Representative western blots of iNOS and β-actin levels in U87-MG cells following administration of the control, 0.1% DMSO (“Vehicle”), 100 μM 7-NI (“7-NI”), 500 μM L-NIL (“L-NIL 500”), or 1000 μM L-NIL (“L-NIL 1000”).
FIG. 14B: Quantitative analysis of iNOS levels for the experiments of FIG. 14A.
In FIGS. 15A-15B, for quantitative analysis data, all individual data series are presented as biological replicates (n=3) for all groups. Data are expressed as the mean±SEM.
FIG. 15A: Representative western blots of nNOS and β-actin levels in U87-MG cells following administration of the control, 0.1% DMSO (“Vehicle”), 100 μM 7-NI (“7-NI”), 500 μM L-NIL (“L-NIL 500”), or 1000 μM L-NIL (“L-NIL 1000”).
FIG. 15B: Quantitative analysis of nNOS levels for the experiments of FIG. 15A.

U87-MG cells [4] = test: Clonogenic survival (colony) assay in U87-MG cells
Experimental: (§2) Human glioblastoma U87-MG cells were obtained from the American Type Culture Collection (ATCC) and maintained in Dulbecco's modified Eagle's Medium (DMEM) and Ham's F-12 (1:1) supplemented with 10% fetal bovine serum, 2 mM L-glutamine, and 100 U/ml penicillin-G/[…] streptomycin in the humidified atmosphere (37° C., 5% CO2). Cells were plated onto 25 cm^2 and 75 cm^2 at a density of 7.0×10^5 and 2.1×10^6 cells/cm^2 respectively for Western blotting (WB) and 1×10^5 for immunofluorescence. The U87-MG cells were treated with 100 μM 7-nitroindazole (7-NI) for 24 hr.
Cells were seeded into 6-well plates at concentrations of 500/well or 1000/well in triplicates. After 24 hours, 7-NI was added, or cells were transiently transfected with siRNA-nNOS, as described above, before changing to serum-containing medium. […] Colonies were stained with crystal violet, washed with PBS, air-dried, and imaged. The colonies were visualized using ImageJ software. Cell colonies of greater than 50 cells were identified and counted.
(§3) In a particular example, in vitro and in vivo experiments were performed using U87-MG cells and U87-MG-xenografted mice, respectively, as a glioblastoma model.

U87-MG cells [5] = test: Nitrite (Griess) assay in U87-MG cells
Experimental: as §2, §3

| SMILES | clonogenic survival (U87-MG cells [1]) | nitrate and nitrite levels (U87-MG cells [2]) | 3-Ntyr (nitrotyrosine) levels (U87-MG cells [3]) | cluster of differentiation 70 (CD-70) levels (U87-MG cells [3]) | inducible nitric oxide synthase (iNOS) levels (U87-MG cells [3]) | neuronal nitric oxide synthase (nNOS) levels (U87-MG cells [3]) | colony growth (U87-MG cells [4]; 7-NI, vs control and negative control (0.1% DMSO)) | nitrite and nitrate content (Griess assay) (U87-MG cells [5]; 7-NI) | colony growth (U87-MG cells [4]; higher dose of L-NIL, both experiments, vs control) | colony growth (U87-MG cells [4]; lower dose of L-NIL, one experiment (FIG. 9), vs control) | colony growth (U87-MG cells [4]; lower dose of L-NIL, second experiment (FIGS. 8C-8D), reduced vs control) | nitrite and nitrate content (Griess assay) (U87-MG cells [5]; higher dose of L-NIL, one experiment (FIG. 10B), vs control) | nitrite and nitrate content (Griess assay) (U87-MG cells [5]; higher dose of L-NIL, second experiment (FIG. 11), reduced vs control) | nitrite and nitrate content (Griess assay) (U87-MG cells [5]; lower dose of L-NIL, one experiment (FIG. 11), vs control) | nitrite and nitrate content (Griess assay) (U87-MG cells [5]; lower dose of L-NIL, second experiment (FIG. 10B), reduced vs control) |
| --- | --- | --- | --- | --- | --- | --- | --- | --- | --- | --- | --- | --- | --- | --- | --- |
| O=[N+]([O-])c1cccc2cn[nH]c12 [7-NI, 7-nitroindazole] | significant decrease | significant decrease | significant decrease | did not lead to significant changes | did not lead to significant changes | did not lead to significant changes | significantly impacted | dramatic reduction | – | – | – | – | – | – | – |
| CC(=N)NCCCC[C@H](N)C(=O)O [L-NIL, N^6-(1-iminoethyl)-L-lysine] | significant decrease | significant decrease | did not result in a significant decrease | did not lead to significant changes | did not lead to significant changes | did not lead to significant changes | – | – | significant decrease | significantly reduced | not statistically significant | significantly reduced | not statistically significant | significantly reduced | not statistically significant |
